The text below walks through data of patent publication US6472526B1, “Imidazole derivatives having an inhibitory activity for farnesyl transferase and process for preparation thereof” (LG Chemical Ltd., priority 1997, dated 2002).

Test [1] addresses T1, Ras farnesyl transferase (Homo sapiens, UniProt P49354+P49356).
T1 construct: made in house
Put plainly: In vitro inhibitory activity for Ras farnesyl transferase, K-Ras substrate. It is filed as biochemical.

Test [2] has as its target T2, Ras farnesyl transferase (Rattus norvegicus, UniProt Q02293+Q04631).
T2 construct: endogenous in cells; host or cells: Rat2 fibroblasts transformed with H-Ras or with an H-Ras/K-Ras C-terminus fusion
Put plainly: In vivo (cellular) inhibitory activity for Ras farnesyl transferase, Rat2 cell line transformed with fused protein of H-Ras substituted with polybasic lysine domain at C-terminus of K-Ras. It is filed as cell-based. A digest of the protocol:
(§1)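 Farnesylated versus unfarnesylated Ras bands were measured by autoradiography after Y13-259 immunoprecipitation and SDS-PAGE, giving CIC50 as 50% inhibition of farnesylation. Rat2 cells expressing H-Ras or an H-Ras fusion with K-Ras polybasic C-terminus got compound (1% DMSO), then [35S]methionine from 4 h onward for 20 h.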

Test [3] concerns the target T2, Ras farnesyl transferase. Put plainly: In vivo (cellular) inhibitory activity for Ras farnesyl transferase, Rat2 cell line which expresses C-Harvey-Ras protein. It is filed as cell-based. A digest of the protocol: as §1
Test [4] has as its target T1, Ras farnesyl transferase. Put plainly: In vitro inhibitory activity for Ras farnesyl transferase, H-Ras substrate. The format is biochemical.
[5] abbreviates: in vitro farnesyl transferase assay, K-Ras, read-out: K-Ras IC50.
Where [6] appears, read: Rat2 cell line transformed with H-Ras fused with polybasic lysine domain of K-Ras C-terminus, concentration inhibiting 50% of farnesyl bonding, read-out: K-Ras CIC50.
[7] abbreviates: Rat2 cell line expressing C-Harvey-Ras, concentration inhibiting 50% of farnesyl bonding of Ras protein, read-out: H-Ras CIC50.
Setting [8] is: recombinant farnesyl transferase 4.5 nM, Ras substrate protein 1.5 μM, tritium-farnesylpyrophosphate 0.15 μM, 30 minutes at 37° C., read-out: H-Ras IC50.

`CSCc1ccc(C(=O)c2cn(Cc3c[nH]cn3)cc2-c2cccc3ccccc23)cc1` [Compound 61]: the IC50 on Ras farnesyl transferase [1] (setting [5]) is 100 to 10000 nM; at Ras farnesyl transferase [2] (setting [6]), 10000 to 100000 nM; at Ras farnesyl transferase [3] (setting [7]), 1000 to 50000 nM; at Ras farnesyl transferase [4] (setting [8]) it was 740 nM.
The like results for `CSCCc1ccc(C(=O)c2cn(Cc3c[nH]cn3)cc2-c2cccc3ccccc23)cc1` [Compound 62] were, in that order, 100 to 10000 nM, 10000 to 100000 nM, 1000 to 50000 nM and 68 nM.
For `CSCCOc1ccc(C(=O)c2cn(Cc3c[nH]cn3)cc2-c2cccc3ccccc23)cc1` [Compound 63] the same measures were 100 to 10000 nM, 10000 to 100000 nM, 1000 to 50000 nM and 230 nM.
`CSCc1cccc(C(=O)c2cn(Cc3c[nH]cn3)cc2-c2cccc3ccccc23)c1` [Compound 64]: the IC50 on Ras farnesyl transferase [1] (setting [5]) was 100 to 10000 nM; on Ras farnesyl transferase [2] (setting [6]), 10000 to 100000 nM; at Ras farnesyl transferase [3] (setting [7]), 1000 to 50000 nM; on Ras farnesyl transferase [4] (setting [8]) it was 160 nM.
Turning to `O=C(c1cccc(-c2ccccc2)c1)c1cn(Cc2c[nH]cn2)cc1-c1cccc2ccccc12` [Compound 65], the IC50 was 100 to 10000 nM at Ras farnesyl transferase [1] (setting [5]), 10000 to 100000 nM on Ras farnesyl transferase [2] (setting [6]), 1000 to 50000 nM on Ras farnesyl transferase [3] (setting [7]) and 420 nM at Ras farnesyl transferase [4] (setting [8]).
For the molecule `O=C(c1ccc(-c2ccccc2)cc1)c1cn(Cc2c[nH]cn2)cc1-c1cccc2ccccc12` [Compound 66], the IC50 was 100 to 10000 nM on Ras farnesyl transferase [1] (setting [5]), 10000 to 100000 nM at Ras farnesyl transferase [2] (setting [6]), 1000 to 50000 nM on Ras farnesyl transferase [3] (setting [7]) and 120 nM at Ras farnesyl transferase [4] (setting [8]).
Turning to `O=C(c1ccc(Oc2ccccc2)cc1)c1cn(Cc2c[nH]cn2)cc1-c1cccc2ccccc12` [Compound 67], the IC50 on Ras farnesyl transferase [1] (setting [5]) is 100 to 10000 nM; on Ras farnesyl transferase [2] (setting [6]), over 50000 nM; on Ras farnesyl transferase [3] (setting [7]) it was 3000 nM; on Ras farnesyl transferase [4] (setting [8]) it was 20 nM.
For `O=C(c1ccc(Cc2ccccc2)cc1)c1cn(Cc2c[nH]cn2)cc1-c1cccc2ccccc12` [Compound 68] the same measures were 100 to 10000 nM, 10000 to 100000 nM, 1000 to 50000 nM and 120 nM.
On to `O=C(c1cn(Cc2c[nH]cn2)cc1-c1cccc2ccccc12)c1cccc2ccccc12` [Compound 69], for which the IC50 is 100 to 10000 nM against Ras farnesyl transferase [1], 10000 to 100000 nM at Ras farnesyl transferase [2], 1000 to 50000 nM against Ras farnesyl transferase [3] and 550 nM at Ras farnesyl transferase [4].
`Cc1ccc(C(=O)c2cn(Cc3c[nH]cn3)cc2-c2cn(C)c3ccccc23)cc1` [Compound 70]: the IC50 at Ras farnesyl transferase [1] (setting [5]) was 100 to 10000 nM; on Ras farnesyl transferase [2] (setting [6]), 10000 to 100000 nM; on Ras farnesyl transferase [3] (setting [7]) it was 1000 to 50000 nM; on Ras farnesyl transferase [4] (setting [8]) it was 210 nM.
For `CCCCc1c(-c2cccc3ccccc23)c(C(=O)c2ccc(Cl)cc2Cl)cn1Cc1c[nH]cn1` [Compound 71] the same measures were 100 to 10000 nM, 10000 to 100000 nM, 1000 to 50000 nM and 120 nM.
For `O=C(c1ccc(Cl)cc1Cl)c1cn(Cc2c[nH]cn2)c(Cc2ccccc2)c1-c1cccc2ccccc12` [Compound 72] the same measures were 100 to 10000 nM, 10000 to 100000 nM, 1000 to 50000 nM and 50 nM.
As to `N#Cc1ccc(Cn2cncc2Cn2cc(C(=O)c3cccs3)c(-c3cccc4ccccc34)c2)cc1` [Compound 73, 1-[1-(4-Cyanobenzyl)-1H-imidazol-5-yl]methyl-4-(naphthalen-1-yl)-3-(thiophen-2-yl)carbonyl-1H-pyrrole], the IC50 was 20 nM on Ras farnesyl transferase [1] (setting [5]), over 10000 nM on Ras farnesyl transferase [2] (setting [6]), 200 nM at Ras farnesyl transferase [3] (setting [7]) and 2 nM on Ras farnesyl transferase [4] (setting [8]).
The like results for `N#Cc1ccc(Cn2cncc2Cn2cc(C(=O)c3ccsc3)c(-c3cccc4ccccc34)c2)cc1` [Compound 74] were, in that order, 10 to 100 nM, 10000 to 100000 nM, 100 to 1000 nM and 10 nM.
Regarding `N#Cc1ccc(Cn2cncc2Cn2cc(C(=O)c3cccc(Br)c3)c(-c3cccc4ccccc34)c2)cc1` [Compound 76], the IC50 at Ras farnesyl transferase [1] (setting [5]) is 100 to 10000 nM; at Ras farnesyl transferase [2] (setting [6]), 10000 to 100000 nM; at Ras farnesyl transferase [3] (setting [7]), 100 to 1000 nM; at Ras farnesyl transferase [4] (setting [8]), 4 nM.
For the molecule `Cn1cnc(Cn2cc(C(=O)c3ccc(F)cc3)c(-c3cccc4ccccc34)c2)c1` [Compound 78, 3-(4-Fluorobenzoyl)-1-(1-methyl-1H-imidazol-4-yl)methyl-4-(naphthalen-1-yl)-1H-pyrrole], the IC50 is 200 nM at Ras farnesyl transferase [1] (setting [5]), 10000 to 100000 nM on Ras farnesyl transferase [2] (setting [6]), 100 nM at Ras farnesyl transferase [3] (setting [7]) and 4.5 nM at Ras farnesyl transferase [4] (setting [8]).
